BindingDB's records for doi:10.1021/acs.jmedchem.7b01854 (Gsk Pharmaceuticals R & D, 2018)

Experiments:
[1] = biological target: C-C chemokine receptor type 10 (Homo sapiens) (UniProt P46092); experiment: Agonist activity at CCR10 (unknown origin)
[2] = biological target: C-C chemokine receptor type 10 (Homo sapiens) (UniProt P46092); experiment: Agonist activity at CCR10 (unknown origin); remark: listed apart in the source

Chain of C-C chemokine receptor type 10 (Homo sapiens) (P46092 whole entry, looked up): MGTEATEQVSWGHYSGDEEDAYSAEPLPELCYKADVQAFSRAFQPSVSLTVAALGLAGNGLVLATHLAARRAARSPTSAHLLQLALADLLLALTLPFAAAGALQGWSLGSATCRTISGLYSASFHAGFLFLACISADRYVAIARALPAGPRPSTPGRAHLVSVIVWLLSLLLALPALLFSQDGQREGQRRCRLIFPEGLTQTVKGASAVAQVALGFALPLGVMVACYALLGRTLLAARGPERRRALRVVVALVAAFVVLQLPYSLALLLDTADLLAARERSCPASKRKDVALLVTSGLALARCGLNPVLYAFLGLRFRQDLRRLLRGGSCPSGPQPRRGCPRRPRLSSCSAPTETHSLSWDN

**Q.** CC1=CCC[C@H]1NC(=O)Nc1ccc(Cl)c(S(=O)(=O)[C@@]2(C)CCOC2)c1O was tested. Which EC50 [1] did it give?
**A.** > 10 µM

**Q.** What about the IC50 [2] of the same molecule?
**A.** > 10 µM
